Ends that are not written are not given here.

This experiment addresses T1, rat ASIC1a (Rattus norvegicus, UniProt P55926).
T1 construct: expressed in transfected cells; host or cells: Xenopus laevis oocytes (injected)
T1 sequence (P55926 1-526): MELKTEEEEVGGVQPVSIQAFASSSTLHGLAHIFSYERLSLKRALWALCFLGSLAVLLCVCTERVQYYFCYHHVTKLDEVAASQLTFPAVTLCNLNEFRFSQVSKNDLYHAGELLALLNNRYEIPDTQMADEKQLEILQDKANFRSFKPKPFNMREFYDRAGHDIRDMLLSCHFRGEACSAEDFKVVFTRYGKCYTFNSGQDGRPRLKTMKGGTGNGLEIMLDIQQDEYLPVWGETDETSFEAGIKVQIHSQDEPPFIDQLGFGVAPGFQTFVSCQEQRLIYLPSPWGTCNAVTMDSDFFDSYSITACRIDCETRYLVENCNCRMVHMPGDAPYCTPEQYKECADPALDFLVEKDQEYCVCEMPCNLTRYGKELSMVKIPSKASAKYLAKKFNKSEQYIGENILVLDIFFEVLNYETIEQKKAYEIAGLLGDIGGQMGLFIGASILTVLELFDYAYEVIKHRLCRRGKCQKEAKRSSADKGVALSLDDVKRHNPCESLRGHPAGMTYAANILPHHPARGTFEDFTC
Put plainly: Whole-cell current activation, rat ASIC1a in X. laevis oocytes. In kind it is cell-based. The following applies: for ASIC1a current amplitude, % of control pH 5.5 stimulus: n = 4. The procedure: Oocytes expressed rASIC1a, rASIC1b, rASIC2a, and rASIC3 homomeric channels were prepared as described. Injected oocytes were kept for two–three days at 19 °C and then for up to seven days at 15 °C in ND-96 medium supplemented with gentamycin (50 μg·mL^−1) and containing (in mM): 96 NaCl, 2 KCl, 1.8 CaCl2, 1 MgCl2, and 10 HEPES titrated to pH 7.4 with NaOH. Electrophysiological recordings were performed using the GeneClamp500 amplifier (Axon Instruments, Inverurie, UK) at a holding potential of -50 mV. The data were filtered at 20 Hz and digitized at 100 Hz using the L780 AD converter (L-Card, Moscow, Russia). Microelectrodes were filled with 3 M KCl. The external bath solution was ND-96 with pH adjusted to 7.4/7.8 (10 mM HEPES) /8.5 (10 mM Tris). Nocistatin containing solutions were freshly prepared and buffered each experimental day in ND-96 bath solution (pH 7.4/7.8/8.5). Proton-activated currents through ASIC channels were elicited by application of ND-96, in which 10 mM of HEPES was substituted with 10 mM MES at pH 5.5/ 10 mM acetic acid at pH 4.5. The whole-cell recording was performed if a response to the control pH stimulus was stable in at least two replicates. Nocistatin-activated currents were elicited by application of nocistatin containing solutions with various concentrations of the peptide.
Extracellular solutions were applied using a computer-controlled valve system with a flow rate of 1 mL/min. The oocyte chamber volume was 80 µL. The validity of the application system for studying ASIC channels expressed in oocytes was confirmed in experiments by application of a Cl-free solution (containing (in mM): 130 NMDG, 1 MgGluc2, 2 KGluc, 5 HEPES) (pH 7.4). Fast application of proton/peptide-activating solution was performed at a flow rate of 1 mL/sec (the change of the bath solution occurred within 100 ms), followed by PC controlled flow stopping (from 5 to 15 s).
Analysis of electrophysiological data was performed using OriginPro 8.6 software (OriginLab, Northampton, MA, USA). Curves were fitted using different logistic equations:
(a) Usual logistic equation [33] F1(x) = A – A/(1 + (x/x0)^nH), where F1(x) is the current amplitude at nocistatin concentration x ([x]) (response at concentration x), A is the maximal current amplitude (or the maximum asymptote or the stabilized response for an infinite concentration), x0 is the value of [x] at which the function reach half their maximum value (the EC50 value), and nH is the Hill coefficient (slope factor or a level of cooperativity);
(b) Equation for the model of unequal sites occupation F2(x) = A/(1 + (x/EC501)^nH)*(1 + (x/EC502)), multiplication of two logistic equations where F2(x) is the current amplitude at nocistatin concentration x, A is the maximal current amplitude, [EC501] is the half-maximal concentration of nocistatin binding to pool of “cooperative” sites (or 0.5 probability of “cooperative” sites’ occupancy) and [EC502] is the half-maximal concentration of nocistatin binding to additional unequal site (or 0.5 probability of single site occupancy), and nH is the Hill coefficient (slope factor) for the pool of cooperative sites;
(d) The time course of curves’ decay was fitted using a mono-exponential equation: F4(x) = A1*e^(-x/τdes) + A0, where F4(x) is the current amplitude at the time point x, A1 is the maximal current amplitude, A0 is its steady-state value and τdes is the […].
All data are presented as mean ± SEM. The significance of normalized data differences was determined with a non-parametric Kruskal-Wallis ANOVA test with the significance level * p < 0.05 and ** p < 0.01; ns, non-significant.

As to “MPRVRSVVQARDAEPEADAEPVADEADEVEQKQLQ [rNS]”, the “ASIC1a current amplitude, % of control pH 5.5 stimulus” value reads like this: (1 mM nocistatin, conditioning pH 7.4) 95.5 ± 1.8%; (1 mM nocistatin, conditioning pH 7.8) 89.5 ± 2.8%; (1 mM nocistatin, conditioning pH 8.5) 86.7 ± 2.5%. Besides, the “Maximal activating effect versus response to a pH drop of 7.4–5.5” value (1 mM nocistatin, extracellular pH 7.4) is given as “comparable to the response to a pH drop of 7.4–5.5”. For the same sequence, the “Acurrent, nocistatin versus protons” value (1 mM rNS vs pH drop 7.4–5.5) is “did not differ between protons and nocistatin”. Also, the “tmax, nocistatin versus protons” value (1 mM rNS vs pH drop 7.4–5.5) was “no differences”. In addition, for the setting “1 mM rNS, conditioning pH 7.4, mono-exponential fit, mean ± S.E. from 4–7 measurements”, the “τdes (desensitization time constant)” value is recorded as 1.4 ± 0.1 s. For the same sequence, the “Hill coefficient (nH), integral current activation” value (integral current, equation F2, n = 5) was determined as 4.8 ± 0.7. Moreover, the “Hill coefficient (nH) of activation” value (peak amplitude, pH 7.4, equation F2, n = 5) is 7.44 ± 0.95.

Values taken from article PMC6769468, “Endogenous Neuropeptide Nocistatin Is a Direct Agonist of Acid-Sensing Ion Channels (ASIC1, ASIC2 and ASIC3)” (Biomolecules, 2019).
